Measurements: PMC11288311 (Cell chemical biology, 2022)

What was measured:
LRH-1 LBD Y516A or K520A = type: binding, human; conditions: Y516A or K520A mutation
[1] = Aqueous solubility by LC-MS in PBS; type: physicochemical; conditions: PBS pH 7.4, 25°C, 2 hours
LRH-1 K520A = experiment: Luciferase reporter assay with LRH-1 K520A mutant; type: cell-based, human; conditions: K520A mutation, 30 μM, 24 hours
hLRH-1 enteroids = experiment: Gene expression in TNF-stimulated humanized LRH-1 mouse intestinal enteroids; type: cell-based; conditions: 1 μM overnight, not observed in LRH-1-deficient enteroids
hLRH1 IEC Rag2-/- mice = experiment: T cell transfer; type: in vivo, mouse; conditions: 20 mg/kg i.p., 16 days
mouse LRH-1 = mouse LRH-1 (Mus musculus, UniProt P45448); experiment: Activation of mouse LRH-1 in vitro
Chain of mouse LRH-1 (P45448 whole entry): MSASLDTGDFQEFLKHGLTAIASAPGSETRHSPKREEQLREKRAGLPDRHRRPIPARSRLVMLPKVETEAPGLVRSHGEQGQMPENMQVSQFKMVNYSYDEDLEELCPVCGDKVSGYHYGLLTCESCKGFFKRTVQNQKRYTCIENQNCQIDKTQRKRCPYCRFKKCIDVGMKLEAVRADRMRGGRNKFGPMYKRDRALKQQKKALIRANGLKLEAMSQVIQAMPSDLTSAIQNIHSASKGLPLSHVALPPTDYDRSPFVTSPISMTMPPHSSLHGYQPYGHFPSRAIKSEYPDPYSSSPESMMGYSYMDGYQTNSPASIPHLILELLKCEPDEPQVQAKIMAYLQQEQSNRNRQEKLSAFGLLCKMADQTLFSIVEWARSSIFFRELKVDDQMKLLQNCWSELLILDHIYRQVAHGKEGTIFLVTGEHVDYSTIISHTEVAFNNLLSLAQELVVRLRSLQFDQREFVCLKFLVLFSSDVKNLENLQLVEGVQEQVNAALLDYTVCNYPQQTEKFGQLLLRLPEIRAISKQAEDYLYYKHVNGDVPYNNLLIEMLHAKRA

[2] = system: human LRH-1 (hLRH-1) in the liver; experiment: Liver gene expression
[3] = system: endogenous LRH-1 in Huh7 hepatocytes; experiment: qRT-PCR of LRH-1 targets in Huh7 hepatocytes; type: cell-based, human; conditions: Huh7, 24-hour treatment

Structure (SMILES) | Decrease in binding affinity, mutant versus WT LRH-1 (LRH-1 LBD Y516A or K520A) | Aqueous solubility limit [1] | Reduction of activation versus WT LRH-1 (LRH-1 K520A) | Expression of Cyp11a1 and Il-10 (hLRH-1 enteroids) | Body weight at end of study relative to mean pre-treatment body weight (hLRH1 IEC Rag2-/- mice) | Colon histology scores (hLRH1 IEC Rag2-/- mice) | Expression of LRH-1 targets Cyp8b1, Cyp11a1, Cyp11b1 in colonic crypts (hLRH1 IEC Rag2-/- mice) | Activation of mouse LRH-1 (mouse LRH-1) | Liver expression of lipogenic genes (Fasn, Acacb, Scd1) ([2]; 0.1, 1 or 10 mg/kg, five i.p. injections over three days) | Liver expression of Srebf1 ([2]; not statistically significant, p = 0.09 versus vehicle) | Expression of LRH-1 targets SHP (NR0B2) and PLK3 [3] | Expression of de novo lipogenesis targets SREBF1, ACACB, FASN, SCD1 [3]
C=C(c1ccccc1)[C@@]12CC[C@@H](O)[C@@H]1CC(CCCCCC)=C2c1ccccc1 [RJW100] | insensitive or less sensitive | 2.9 µM |  |  |  |  |  |  |  |  |  | 
C=C(c1ccccc1)[C@@]12CC[C@@H](O)[C@@H]1CC(CCCCCCCCCC(=O)O)=C2c1ccccc1 [Compound 10CA] |  |  | around 60% | induces expression | ≤ 1% | markedly improved | strong upregulation | poor activators of mouse LRH-1 | downregulation of lipogenic genes | trends lower | dose-dependently upregulates | downregulates
